{
  "source": "paper PMC10508264",
  "about": "“Exploring the antioxidant, antimicrobial, cytotoxic and biothermodynamic properties of novel morpholine derivative bioactive Mn(II), Co(II) and Ni(II) complexes – combined experimental and theoretical measurements towards DNA/BSA/SARS-CoV-2 3CL^Pro” (RSC Medicinal Chemistry, 2023)",
  "key": {"CT-DNA": {"system": "CT-DNA", "assay": "DNA binding by cyclic voltammetry", "conditions": "for Kb, method I, Oxi: oxidation; for Kb, method I, red: reduction", "method": "The changes in peak current as well as peak potential were monitored while concentrations of CT-DNA were increased (0–10 μM) in each sample solution.[13,36]\nThe CV approach is one of the most important methods for evaluating the binding mechanism of a DNA–complex adduct. The CV properties of all test samples in the presence and absence of DNA were executed at a scan rate (v) of 0.1 V s^−1 with a potential range of +2 to −2 in a Tris–HCl (5 mM)/NaCl (50 mM) (pH = 7.2) solution. The M^1+/M^2+ redox couple is caused by complexes that reveal a single anodic and cathodic peak. […] (Fig. S31 ^† and Table 6).\nΔEP is peak-to-peak separation = (EPa − EPc); E° (or E1/2) denotes the formal electrode potential = 1/2(EPa + EPc); [drawing 41] [drawing 42] and [drawing 43] represent the formal electrode potential of the M^1+/M^2+ couple in the bound and free forms, respectively. [drawing 44] = +19 mV (HL), +18 mV (1), +16 mV (2), +16 mV (3). Ipa is anodic peak current, Ipc is cathodic peak current. K^1+ is the binding constant of the reduction process, K^2+ is the binding constant of the oxidation process. S represents the binding site size of base pairs (bp) with a molecule of complex, scan rate is 100 mV s^−1, binding constant (Kb) values observed from the linear plots of log(1/[DNA]) versus log(I/I0 − I) for oxidation and reduction, (I0 − IDNA)/IDNA = Cp/Cfversus [DNA] and I^2p versus(I^2po − I^2p)/[DNA] by methods I, II and III, respectively.\nWhile the substances often bind to DNA through intercalation, the peak potential shifts in a positive direction. When the compounds bind to DNA through minor or major grooves or electrostatic attractions, the peak potential shifts occur in a negative direction. It was observed that the consistent movement of peak potential shifts in the positive direction during increments of DNA with test substances. The binding mode in compound–DNA adducts has been described as primarily intercalation (Fig. S31 ^†), and it is also attributed to the presence of 2,2′-bipyridine and morpholine fused aromatic planar systems in mixed ligand complexes, which can create inclusion through intercalation due to hydrophobic and π–π stacking interactions in the DNA base pairs. It is also supported by the evaluated outcomes from UV-vis spectral, emission titration, viscometric, and biothermodynamic properties. Furthermore, the observed values of Kb, S, and the ratio of binding constants (K^1+/K^2+) for M^1+/M^2+ couple systems further confirmed the binding affinity via intercalation. Also, the subsequent eqn (24)–(35) are applied to determine the above parameters.[88,89]Eqn (24) is acquired from modification of the Stern–Volmer eqn (14) (Table 6). The Kb values for all samples were estimated from the linear regression plot of log(1/[DNA]) versus log(I/I0 − I) by method I (Fig. S32 ^† and Table 6). Eqn (26) was obtained from revision of eqn (25). Also, binding site size (S, bp) and Kb are estimated from eqn (30) from the linear regression plot of (Cp/Cf) versus [DNA] by method-II[90–92] (Fig. S33 ^† and Table 6). In addition, base-pair sites with a molecule of the compound are referred to as “binding site size” (S), and the evaluated S values were found in the range from 0.1718 to 0.4599 bp. […] In the Nernst eqn (31) and (32) for the galvanic cell, [drawing 58] , the formal electrode potentials of the M^1+/M^2+ couple in their bound and free forms are E1/2 or [drawing 59] and [drawing 60] , respectively. As a result of the variable binding state [M^1+/M^2+] and the delayed mass transfer of test compounds that interacted with DNA fragments, the addition of DNA to the compound solution enabled a change in the redox potential to a higher positive direction and a drop in both anodic and cathodic peak currents. In particular, the equilibrium of M^1+/M^2+ is influenced by electrostatic or hydrophobic interactions."}, "Shigella flexneri": {"system": "Shigella flexneri", "assay": "Agar disc diffusion, strain E", "assay_type": "cell-based", "design": "Inhibition%: concentration or dose not given beside the values", "conditions": "for Diameter of clear zone inhibition: control 6 mm"}},
  "data": [
    {"compound": "[Mn+2].[O-]c1ccccc1N=Cc1ccc(N2CCOCC2)cc1.[O-]c1ccccc1N=Cc1ccc(N2CCOCC2)cc1.c1ccc(-c2ccccn2)nc1", "note": "[(1)]", "values": [
      {"measurement": "Kb, method II", "setting": "CT-DNA", "value": 14873, "unit": "M⁻¹"},
      {"measurement": "Kb, method III", "setting": "CT-DNA", "value": 10713, "unit": "M⁻¹"},
      {"measurement": "Kb, method I, Oxi", "setting": "CT-DNA", "value": 10020, "unit": "M⁻¹"},
      {"measurement": "Kb, method I, red", "setting": "CT-DNA", "value": 7890, "unit": "M⁻¹"},
      {"measurement": "Inhibition%", "setting": "Shigella flexneri", "value": 40, "unit": "%"},
      {"measurement": "Diameter of clear zone inhibition", "setting": "Shigella flexneri", "value": 10, "unit": "mm"}
    ]},
    {"compound": "[Co+2].[O-]c1ccccc1N=Cc1ccc(N2CCOCC2)cc1.[O-]c1ccccc1N=Cc1ccc(N2CCOCC2)cc1.c1ccc(-c2ccccn2)nc1", "note": "[(2)]", "values": [
      {"measurement": "Kb, method II", "setting": "CT-DNA", "value": 41119, "unit": "M⁻¹"},
      {"measurement": "Kb, method III", "setting": "CT-DNA", "value": 15999, "unit": "M⁻¹"},
      {"measurement": "Kb, method I, Oxi", "setting": "CT-DNA", "value": 14210, "unit": "M⁻¹"},
      {"measurement": "Kb, method I, red", "setting": "CT-DNA", "value": 11330, "unit": "M⁻¹"},
      {"measurement": "Inhibition%", "setting": "Shigella flexneri", "value": 33, "unit": "%"},
      {"measurement": "Diameter of clear zone inhibition", "setting": "Shigella flexneri", "value": "09", "unit": "mm"}
    ]},
    {"compound": "[Ni+2].[O-]c1ccccc1N=Cc1ccc(N2CCOCC2)cc1.[O-]c1ccccc1N=Cc1ccc(N2CCOCC2)cc1.c1ccc(-c2ccccn2)nc1", "note": "[(3)]", "values": [
      {"measurement": "Kb, method II", "setting": "CT-DNA", "value": 6072, "unit": "M⁻¹"},
      {"measurement": "Kb, method III", "setting": "CT-DNA", "value": 16031, "unit": "M⁻¹"},
      {"measurement": "Kb, method I, Oxi", "setting": "CT-DNA", "value": 11440, "unit": "M⁻¹"},
      {"measurement": "Kb, method I, red", "setting": "CT-DNA", "value": 9156, "unit": "M⁻¹"},
      {"measurement": "Inhibition%", "setting": "Shigella flexneri", "value": 54, "unit": "%"},
      {"measurement": "Diameter of clear zone inhibition", "setting": "Shigella flexneri", "value": 13, "unit": "mm"}
    ]},
    {"compound": "Oc1ccccc1N=Cc1ccc(N2CCOCC2)cc1", "note": "[(HL), 2-(4-morpholinobenzylideneamino)phenol]", "values": [
      {"measurement": "Kb, method II", "setting": "CT-DNA", "value": 2443, "unit": "M⁻¹"},
      {"measurement": "Kb, method III", "setting": "CT-DNA", "value": 4837, "unit": "M⁻¹"},
      {"measurement": "Kb, method I, Oxi", "setting": "CT-DNA", "value": 5280, "unit": "M⁻¹"},
      {"measurement": "Kb, method I, red", "setting": "CT-DNA", "value": 3809, "unit": "M⁻¹"},
      {"measurement": "Inhibition%", "setting": "Shigella flexneri", "value": 57, "unit": "%"},
      {"measurement": "Diameter of clear zone inhibition", "setting": "Shigella flexneri", "value": 14, "unit": "mm"}
    ]}
  ]
}
